Data taken from patent US20260306633A1, “A COMBINATION THERAPY FOR CANCER TREATMENT” (Purdue Research Foundation, priority 2023, published 2026).
Values joined by “and” are separate entries in the source; they are usually repeats but may differ in a detail not shown here. Identical values can stand only once.

Columns and labels:
[1] = test system: TNBC BT-549 cells; assay: Cell survival / cell inhibition (MTT cell cytotoxicity assay) after 24 h treatment with photosensitizer and/or chemotherapeutic agent, dark or light-irradiated; assay type: cell-based, human; settings: for cell inhibition (%), combination with cisplatin / cell inhibition (%), combination with doxorubicin / cell inhibition (%), combination with fluorouracil / cell inhibition (%), combination with methotrexate / cell inhibition (%), combination with paclitaxel: light 0.96 J cm−2; for cell inhibition (%), combination with methotrexate: PS 100 nM + methotrexate 500 nM; for cytotoxicity in the absence of light, PS alone: PS 500 nM; for cell viability reduction (difference) vs PS alone: PS at lower concentration (CPA: 50 nM) + methotrexate 500 nM
Protocol: Human mammary epithelial carcinoma cell lines purchased from the American Type Culture Collection BT-549 (ATCC HTB-122) were cultured according to ATCC protocol. BT-549 cells were grown in RPMI 1640 containing 0.023 IU/mL insulin and supplemented with 10% fetal bovine serum (FBS). Cells were grown to 80-90% confluence in 75-cm^2 culture flasks (Corning) for 4-5 days in a humidified incubator (Fisher Scientific Isotemp) with 5% CO2 at 37° C. During the incubation period, growth media was changed once with fresh pre-warmed media (pH 7.2). To harvest the cells, old growth media was aspirated out, and 3 mL 0.25% trypsin solution (Thermo Sci Hyclone) were added. The cells were incubated for 5 minutes, and the cell pellet after centrifugation was resuspended in 3 mL media, broken up gently, then 1 mL of suspended cells was transferred into a new T75 cell culture flask containing pre-warmed media (20 mL) for further culturing.
(§1) Cells were grown to confluence in a 96-well plate (9×10^3 cells/well) and co-treated for 24 hours with synthesized photosensitizers (PSs) and chemotherapeutic agents of varying concentrations ranging from 5 nM to 50 μM) in growth media from a stock solution of 10 mM in DMSO (dimethyl sulfoxide, Fisher). After 24-hour treatment, old growth media containing the PSs or compounds were aspirated out and replaced with fresh media. Plates were then positioned below a non-coherent LumaCare LC-122 650 nm light source for 1 minute at an energy fluence rate of 0.96 J/cm^2 and a power of 16 mW/cm^2 (measured using a Newport optical power meter Model 840). Unirradiated cells served as control samples. The following day, cells were washed with pre-warmed PBS, and 11MTT (3-[4,5-dimethyl-thiazol-2-yl]-2.5-diphenyltetrazolium bromide, Sigma, 0.3 mg/mL) in PBS was added to each well. Samples were allowed to incubate for additional 2 hours, after which dark blue crystals formed. DMSO was added to each well and plates were shaken at room temperature for 1 hour to dissolve the purplish-blue formazan crystals. Absorbance values at 570 nm were measured on a microplate reader (BioRad 550). Cell survival was calculated based on the absorbance of the untreated cells alone (as control) and were directly proportional to the number of viable cells in culture. Results were reported as the mean±SD of triplicate measurements.
The unmetallated PS and the indium complexes were used.
Light dose corresponds to an energy fluence rate of 0.96 J/cm^2 used.
Power of 16 mW/cm^2 used.
Cell inhibition in TNBC cells is based on the cell survival (MTT) assay of the binary therapy, blending the effect of PDT and chemotherapeutic agents. […] MePheo serves as a control compound. TNBC cells were then exposed to light after binary treatment for 24 hours.

[2] = test system: TNBC cells; assay: Combination index (CI) of binary therapy, Chou-Talalay method, CompuSyn software; assay type: cell-based, human; settings: for combination index (CI) with cisplatin / synergism vs additive vs antagonism effect with cisplatin: PS 50 nM + cisplatin 25 μM; for combination index (CI) with doxorubicin / synergism vs additive vs antagonism effect with doxorubicin: PS 50 nM + doxorubicin 500 nM; for combination index (CI) with fluorouracil / synergism vs additive vs antagonism effect with fluorouracil: PS 50 nM + fluorouracil 25 μM; for combination index (CI) with paclitaxel / synergism vs additive vs antagonism effect with paclitaxel: PS 50 nM + paclitaxel 50 nM
Protocol: (§2) The calculated CI values are based on 50 nM concentration for the PSs, 50 nM paclitaxel, 500 nM doxorubicin, 25 μM cisplatin, 25 μM fluorouracil, and 500 nM methotrexate.
as §1
The combination index (CI) for the binary treatment of TNBC cells with a PS and a chemotherapeutic drug was calculated based on the Chou-Talalay method using CompuSyn software. […] The unified dynamics algorithm uses a minimum of dose-data points to fit the general MAL theory.
as §2

[3] = test system: human TNBC BT-549 cells; assay: Fluorescence microscopy (Hoechst 33258) of cell morphology / cell death pathway; assay type: cell-based
Protocol: Grayscale images of cells stained with Hoechst 33258. Morphology of (A) untreated unirradiated cells, sham control; (B) illuminated cells; (C-E) cells treated with: PSs (InCLA, CBTN, and CPA) and paclitaxel in the dark; (F-H) PSs, followed by 1 minute light exposure; (I) paclitaxel unirradiated; (J-L) PSs and paclitaxel in the dark; (M-O) PSs co-treated with paclitaxel, then light-exposed; (P-Q) PSs co-treated with doxorubicin, then irradiated; (R) PSs and cisplatin, dark; (S-T) PSs and cisplatin, irradiated; (U) fluorouracil, dark; (V) InCLA with fluorouracil in the dark; (W) light-exposed and, (X-Y) PSs with methotrexate with light. Inserts indicate enlarged view. […] Light dose in 1 minute=0.96 J cm^−2; in 30 seconds=0.48 J cm^−2. Concentrations: PSs=50 nM; paclitaxel=50 nM; doxorubicin=500 nM; cisplatin=25 μM; fluororuracil=25 μM; and, methotrexate=500 nM.
Cells (1 mL aliquots) obtained from a diluted cell suspension were seeded into each well (1.7 cm^2, 8×10^3 cells/well) of a 4-well culture slide (BD Biosciences) and grown to confluence in 5% CO2 at 37° C. for 3-4 days for attachment to the substratum. After aspirating the old growth media, 1 mL of the photosensitizer and chemotherapeutic agents (with appropriate concentrations) in fresh pre-warmed media at 37° C. was added to each well. After compound treatment for 24 hours, cells were washed twice with 1 mL fresh growth media, and then irradiated with light using LumaCare LC-122 as described above. Cells were stained in the dark with Hoechst 33258 (Molecular Probes) in pre-warmed media for 10 minutes at 37° C., washed twice with filtered PBS, then fixed with filtered paraformaldehyde for 15 minutes in the incubator. After thorough liquid aspiration, the wells were removed and allowed to air dry in the dark for 1 hour. Slides were protected with coverslips, whose edges were sealed using clear fast-drying nail polish and allowed to dry at room temperature in the dark for 30 minutes. Images were recorded using fluorescence microscopy (DAPI for Hoechst 350-390 nm excitation and 460-490 nm emission filters) using an upright fluorescence microscope with Retiga imaging 2000R (Nikon Optiphot-2, 20× and 40×) and an image processing Nikon NIS-Elements V4.0 Qimaging software.
To determine the preferred cell death pathway for the binary chemophotodynamic therapy, tracking the hallmarks of apoptosis or necrosis was accomplished using a nuclear stain to monitor chromatin condensation and cellular contraction. TNBC cells are spindle-shaped and nearly round with intact cytoplasm, diffused chromatin, distinct cellular membrane, and large oval nuclei staining dark blue with the nuclear stain (FIG. 18A-B).

[4] = test system: TNBC cells; assay: Combination index (CI) of binary therapy, Chou-Talalay method, CompuSyn software; assay type: cell-based, human; settings: PS 50 nM + methotrexate 500 μM (footnote 500 nM)
[5] = PS 100 nM + cisplatin 25 μM, 24 h
[6] = PS 100 nM + cisplatin 25 μM, light
[7] = PS 100 nM + doxorubicin 500 nM, 24 h
[8] = PS 100 nM + fluorouracil 25 μM, 24 h
[9] = PS 100 nM + paclitaxel 50 nM, 24 h

| SMILES | cell inhibition (%), combination with cisplatin [1, 5] | effect of added cisplatin compared to cisplatin-treated cell viability [1, 6] | cell inhibition (%), combination with doxorubicin [1, 7] | cell inhibition (%), combination with fluorouracil [1, 8] | cell inhibition (%), combination with methotrexate ([1]; 24 h) | cell inhibition (%), combination with paclitaxel [1, 9] | cytotoxicity in the absence of light, PS alone ([1]; dark) | cell viability reduction (difference) vs PS alone ([1]; light) | combination index (CI) with cisplatin [2] | synergism vs additive vs antagonism effect with cisplatin [2] | combination index (CI) with doxorubicin [2] | synergism vs additive vs antagonism effect with doxorubicin [2] | combination index (CI) with fluorouracil [2] | synergism vs additive vs antagonism effect with fluorouracil [2] | combination index (CI) with paclitaxel [2] | synergism vs additive vs antagonism effect with paclitaxel [2] | combination index (CI) with methotrexate [4] | synergism vs additive vs antagonism effect with methotrexate [4] | other results |
| --- | --- | --- | --- | --- | --- | --- | --- | --- | --- | --- | --- | --- | --- | --- | --- | --- | --- | --- | --- |
| C=Cc1c(C)c2cc3nc(c(CC(=O)OC)c4[nH]c(cc5nc(cc1[nH]2)C(C)=C5CC)c(C)c4C(=O)NCCCCCCNC(=O)CCNC(=O)[C@H](O)C(C)(C)CO)[C@@H](CCC(=O)OC)[C@@H]3C [CPA, chlorin pantothenic acid conjugate] | 87% | reduced cell survival | 73% | 43% | 33% | 63% | No cytotoxicity | 33% | 1.30 | (MA) (MA (1.20-1.45), moderate antagonism) | 1.52 | (A) (A (1.45-3.3), antagonism) | 0.45 | (S) (S (0.3-0.7), synergism) | 0.41 | (S) (S (0.3-0.7), synergism) | 0.50 | (S) (S (0.3-0.7), synergism) | cell viability, co-treatment with methotrexate upon light ([1]; PS 50 nM + methotrexate 500 nM, light, 1440 min): 66%; cell survival, PS alone ([1]; PS 50 nM, light, 1440 min): 99%; cell survival, co-treatment with cisplatin upon light ([1]; PS 100 nM + cisplatin 25 μM, light, 1440 min): 13%; cell survival, co-treatment with doxorubicin in the dark ([1]; PS 100 nM + doxorubicin 500 nM, 24 h, dark): 75%; cell survival, co-treatment with doxorubicin upon light ([1]; PS 100 nM + doxorubicin 500 nM, light, 1440 min, 0.1 µM): 37% and 27%; best combination partner ([1]; PS 100 nM + drug, light): cisplatin is the best, next doxorubicin, then paclitaxel; effect of added fluorouracil compared to fluorouracil-treated cell viability ([1]; PS 100 nM + fluorouracil 25 μM, light): reduced cell survival; cell survival, co-treatment with fluorouracil upon light ([1]; PS 100 nM + fluorouracil 25 μM, light, 1440 min): 57%; cell survival, co-treatment with paclitaxel upon light ([1]; PS 100 nM + paclitaxel 50 nM, light, 1440 min): 37%; chemophotodynamic potency against TNBC cells, summary ([1]; PS 100 nM alone or in combination, light): better activity against TNBC cells than the starting compound MePheo; cell survival, PS alone ([1]; PS 100 nM, light 0.96 J/cm^2, 1440 min, 0.1 µM): 75.3% and 75%; combination therapy vs monotherapy (cisplatin) ([1]; PS + cisplatin, light): better photodynamic effect when co-treated with cisplatin than PS-treatment alone; combination therapy vs monotherapy (doxorubicin) ([1]; PS + doxorubicin, light): better photodynamic effect when co-treated with doxorubicin than PS-treatment alone; combination therapy vs monotherapy (fluorouracil) ([1]; PS + fluorouracil, light): better photodynamic effect when co-treated with fluorouracil than PS-treatment alone; combination therapy vs monotherapy (methotrexate) ([1]; PS + methotrexate, light): best compared to monotherapy alone and with the other PSs used; ranking of combination partners based on CI, decreasing order ([2]; PS 50 nM + drug): paclitaxel>fluorouracil>methotrexate; cell morphology, PS co-treated with paclitaxel ([3]; PS 50 nM + paclitaxel 50 nM, light (FIG. 18M-O)): shrunk cells and chromatin fragmentation are evident; cell morphology, PS-treated then light ([3]; PS 50 nM, 24 h, light (FIG. 18F-H)): reduced cellular volume and nuclear density; preferred mode of cell death ([3]; PS co-treated with paclitaxel or cisplatin): apoptosis |
| C=Cc1c(C)c2cc3nc(c4c5[nH]c(cc6nc(cc1[nH]2)C(C)=C6CC)c(C)c5C(=O)[C@@H]4C(=O)OC)[C@@H](CCC(=O)OC)[C@@H]3C [MePheo, methyl pheophorbide, reference compound] | 39% | reduced cell survival | 36% | 34% | 40% | 55% | No cytotoxicity | 10% | 6.10 | (SA) (SA (3.3-10), strong antagonism) | 6.37 | (SA) (SA (3.3-10), strong antagonism) | 17.96 | (VSA) (VSA (>10), very strong antagonism) | 13.27 | (VSA) (VSA (>10), very strong antagonism) | 7.79 | (SA) (SA (3.3-10), strong antagonism) | cell survival, co-treatment with fluorouracil in the dark ([1]; PS 100 nM + fluorouracil 25 μM, 24 h, dark): 61%; cell survival, co-treatment with paclitaxel in the dark ([1]; PS 100 nM + paclitaxel 50 nM, 24 h, dark): 46% |
